Patent publication EP0720987A1, “Acylated pseudopeptides containing trifluoromethyl substituted 2-azabicyclooctane” (BAYER AG, priority 1995, dated 1996)

Columns and labels:
HIV-1-Protease = target: T1, HIV-1-Protease (Human immunodeficiency virus type 1 group M subtype B, UniProt P04585); test: HIV-specific protease enzyme test (cleavage of synthetic peptide by purified HIV protease, RP-HPLC analysis); assay type: biochemical; details: synthetic peptide substrate imitating Gag precursor cleavage site; for IC50: read-out: HIV-1-Protease-Inhibition IC50
T1 construct: Gereinigte HIV-Protease wurde mit synthetischem Peptid
Excerpt: Es wurde überraschend gefunden, daß die Verbindungen der allgemeinen Formel (I) eine außerordentlich starke Wirkung gegen Retroviren besitzen. Dies wird mit einem HIV-spezifischen Protease-Enzymtest belegt.
Die Ergebnisse der unten aufgeführten Beispiele wurden nach dem in den folgenden Literaturangaben [vgl. Hansen, J., Billich, S., Schulze, T., Sukrow, S. and Mölling, K. (1988), EMBO Journal, Vol, 7, No. 6, pp. 1785 - 1791] beschriebenen HIV-Testsystem ermittelt: Gereinigte HIV-Protease wurde mit synthetischem Peptid, das eine Schnittstelle im Gag-Precursor-Protein imitiert und eine in vivo-Spaltstelle der HIV-Protease darstellt, inkubiert. Die entstandenen Spaltprodukte des synthetischen Peptids wurden über Reverse Phase High Performance Liquid Chromatography (RP-HPLC) analysiert. Die angegebenen IC50Werte beziehen sich auf die Substanzkonzentration, die unter den oben aufgeführten Testbedingungen eine 50%ige Hemmung der Protease-Aktivität bewirkt.

HIV = HIV infection in cell culture (PBL), inhibition of virus-induced syncytia formation; assay type: cell-based; details: Human immunodeficiency virus 1, Lymphocyte, 72 h; HIV-infected normal human blood lymphocytes (PBL's); 50% suppression of virus-induced syncytia, read microscopically day 3 to 6 after infection
Protocol: Außerdem zeigten die erfindungsgemäßen Verbindungen Wirkung in Lentivirus infizierten Zellkulturen. Dies konnte am Beispiel des HIV-Virus gezeigt werden.
HIV-Infektion in Zellkultur
Der HIV-Test wurde mit geringen Modifikationen nach der Methode von Pauwels et al. [vgl. Journal of Virological Methods 20, (1988), 309-321] durchgeführt.
Normale menschliche Blutlymphozyten (PBL's) wurden über Ficoll-Hypaque angereichert und im RPMI 1640, 20% fötales Kälberserum mit Phythaemagglutinin (90 µg/ml) und Interleukin-2 (40 U/ml) stimuliert. Zur Infektion mit dem infektiösen HIV wurden PBL's pelletiert und das Zellpellet wurde anschließend in 1 ml HIV-Virusadsorptionslösung suspendiert und 1 Stunde bei 37°C inkubiert.
Die Virusadsorptionslösung wurde zentrifugiert und das infizierte Zellpellet in Wachstumsmedium aufgenommen, so daß 1 x 10^5 Zellen pro ml eingestellt waren. Die derart infizierten Zellen wurden zu 1 x 10^4 Zellen/Napf in die Näpfe von 96er Mikrotiterplatten pipettiert.
Die erste vertikale Reihe der Mikrotiterplatte enthielt nur Wachstumsmedium und Zellen, die nicht infiziert, aber ansonsten genauso wie oben beschrieben, behandelt worden waren (Zellkontrolle). Die zweite vertikale Reihe der Mikrotiterplatte erhielt nur HIV-infizierte Zellen (Viruskontrolle) in Wachstumsmedium. Die übrigen Näpfe enthielten die erfindungsgemäßen Verbindungen in unterschiedlichen Konzentrationen, ausgehend von den Näpfen der 3. vertikalen Reihe der Mikrotiterplatte, von der die Prüfsubstanzen in 2er Schritten 2^10fach verdünnt wurden.
Die Testansätze wurden so lange bei 37°C inkubiert, bis in der unbehandelten Viruskontrolle die für das HIV typische Syncytienbildung auftrat (zwischen Tag 3 und 6 nach Infektion), die dann mikroskopisch ausgewertet wurde. In der unbehandelten Viruskontrolle resultierten unter diesen Testbedingungen etwa 20 Syncytien, währen die unbehandelte Zellkontrolle keine Syncytien aufwies. […]

SMILES: CCOC(=O)CCC(=O)O[C@H](CN1[C@H](C(F)(F)F)C[C@@H]2CCC[C@@H]21)[C@H](Cc1ccccc1)NC(=O)[C@H](CC(N)=O)NC(=O)c1ccc2ccccc2n1 [Beispiel 1, (2R,3S)-3-(Chinolin-2-yl-L-asparaginyl)-amino-1-[(S,S,S)-3-trifluormethyl-2-azabicylco[3.3.0]octan-2-yl}-2-(3-ethoxycarbonyl)propionyl-4-phenylbutan]
- IC50 (HIV-1-Protease): 320000 nM
- IC50 (HIV): 108 nM

SMILES: CC(=O)O[C@H](CN1[C@H](C(F)(F)F)C[C@@H]2CCC[C@@H]21)[C@H](Cc1ccccc1)NC(=O)[C@H](CC(N)=O)NC(=O)c1ccc2ccccc2n1 [Beispiel 2]
- HIV-1-Protease-Inhibition IC95 (HIV-1-Protease): 3,3 x 10^-5 Mol/l
- IC50 (HIV-1-Protease): 1100 nM
- IC50 (HIV): 612 nM

SMILES: CC(=O)O[C@H](CN1[C@H](C(F)(F)F)C[C@@H]2CCC[C@@H]21)[C@H](Cc1ccccc1)NC(=O)[C@H](CC(N)=O)NC(=O)c1cnc2cc(C)c(C)cc2n1 [Beispiel 3]
- HIV-1-Protease-Inhibition IC95 (HIV-1-Protease): 2,5 x 10^-8 Mol/l
- IC50 (HIV-1-Protease): 1.5 nM
- IC50 (HIV): 120 nM
